# Data from article PMC4890002, “The CebE/MsiK Transporter is a Doorway to the Cello-oligosaccharide-mediated Induction of Streptomyces scabies Pathogenicity” (Scientific Reports, 2016).
# Like-named read-outs stand apart in the source and are kept apart here.
# T1: CebE (SCAB57751, CebE^scab) (Streptomyces scabiei, UniProt C9Z451)
# T1 construct: gene SCAB_57751; N-terminally 6His-tagged CebE without its first 44 codons (signal peptide and membrane-anchoring lipopeptide), produced in E. coli
# T1 sequence (C9Z451 45-454): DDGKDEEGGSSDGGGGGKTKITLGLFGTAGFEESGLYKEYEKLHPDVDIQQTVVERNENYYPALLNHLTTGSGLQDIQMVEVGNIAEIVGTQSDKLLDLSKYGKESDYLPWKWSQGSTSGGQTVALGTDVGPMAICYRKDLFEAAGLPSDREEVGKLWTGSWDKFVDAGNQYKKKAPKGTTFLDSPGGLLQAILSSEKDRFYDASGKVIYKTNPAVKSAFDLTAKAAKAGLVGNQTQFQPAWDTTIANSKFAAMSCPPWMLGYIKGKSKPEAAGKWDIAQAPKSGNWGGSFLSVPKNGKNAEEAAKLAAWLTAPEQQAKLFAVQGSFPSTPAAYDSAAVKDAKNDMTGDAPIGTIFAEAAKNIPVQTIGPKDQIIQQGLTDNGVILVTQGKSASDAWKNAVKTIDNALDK
# Legend:
# [1] = molecular target: T1, CebE (SCAB57751, CebE^scab); assay: intrinsic tryptophan fluorescence titration of purified protein; format: binding
# [2] = molecular target: T2, CebR (SCAB57761) (Streptomyces scabiei, UniProt C9Z452); assay: EMSA: loss of DNA binding of pure CebR-His6 preincubated with the sugar; format: biochemical
# T2 construct: gene SCAB_57761; CebR-His6 (pure)
# [3] = molecular target: CebR (UniProt C9Z452 1-352); assay: EMSA; CebR 0-480 nM; no oligosaccharide; EMSA as in earlier work (buffer, salt, pH not given); 15 pmol Cy5 probe and 150 pmol CebR-6His in Methods, legend gives 6 nM probe (panel D) and CebR 0-480 nM (panel C); 1% agarose gel run at room temperature; conditions: protein: recombinant; tags: His6 (printed as CebR-6His / CebR-His6); chain copies: 2; blunt
Molecule,Kd [1],EMSA: loss of DNA binding of pure CebR-His6 preincubated with the sugar [2],Kd ([1]; read-out: Kd),binding result [3]
"OC[C@H]1O[C@@H](O[C@H]2[C@H](O)[C@@H](O)C(O)O[C@@H]2CO)[C@H](O)[C@@H](O)[C@@H]1O (some centres unmarked) [(Glc)2, cellobiose]",14 nM,EMSAs demonstrating that cellobiose and cellotriose are able to inhibit the DNA-binding ability of CebR,,
"OC[C@H]1O[C@@H](O[C@H]2[C@H](O)[C@@H](O)[C@H](O[C@H]3[C@H](O)[C@@H](O)C(O)O[C@@H]3CO)O[C@@H]2CO)[C@H](O)[C@@H](O)[C@@H]1O (some centres unmarked) [(Glc)3, cellotriose]",,EMSAs demonstrating that cellobiose and cellotriose are able to inhibit the DNA-binding ability of CebR,2 nM,
cbsbglC probe (dsDNA) DNA 1: CGACCACCAATGGGAGCGCTTCCATGCCTGAACC DNA 2: GGTTCAGGCATGGAAGCGCTCCCATTGGTGGTCG,,,,binds
